Data published in patent US7205315B2, “Bicyclic imino acid derivatives as inhibitors of matrix metalloproteinases” (Sanofi-Aventis Deutschland GmbH, priority 2003, dated 2007).
Structures can show the parent of a compound that is named as a salt.

Key:
Type in all cases: biochemical
[1] = target: T1, catalytic domain of human neutrophilic collagenase (MMP-8) (Homo sapiens, UniProt P22894); assay: Enzyme activity of the catalytic domain of neutrophilic collagenase (MMP-8), fluorogenic substrate; conditions: catalytic domain prepared as described by Ye et al., fluorescence 328/393 nm
T1 construct: of the catalytic domain of human stromelysin (MMP-3) and neutrophilic collagenase (MMP-8); made in house
T1 sequence (P22894 100-262 limits assumed): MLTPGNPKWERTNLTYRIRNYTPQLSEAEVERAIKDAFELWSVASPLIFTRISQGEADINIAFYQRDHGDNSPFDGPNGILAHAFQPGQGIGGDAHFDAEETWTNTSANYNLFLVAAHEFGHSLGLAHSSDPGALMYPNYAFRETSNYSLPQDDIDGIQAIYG
Method: b) Preparation, and determination of the enzyme activity, of the catalytic domain of human stromelysin (MMP-3) and neutrophilic collagenase (MMP-8).
The two enzymes, i.e. stromelysin (MMP-3) and neutrophilic collagenase (MMP-8), were prepared as described by Ye et al. (Biochemistry; 31 (1992) pages 11231–11235). In order to measure the enzyme activity or the inhibitory effect on the enzyme, 10 μl of enzyme solution were incubated, for 15 minutes, with 10 μl of a 3% (v/v) buffered solution of dimethyl sulfoxide which contained the enzyme inhibitor, where appropriate. After 10 μl of a 3% (v/v) aqueous solution of dimethyl sulfoxide which contained 1 mmol of substrate/l had been added, the enzyme reaction was monitored by fluorescence spectroscopy (328 nm (ex)/393 nm(em)).
(§1) The enzyme activity is presented as increase in extinction/minute.
The buffer solution contained 0.05% Brij (Sigma, Deisenhofen, Germany) as well as 0.1 mol of tris/HCl/l, 0.1 mol of NaCl/l, 0.01 mol of CaCl2/l and 0.1 mol of piperazine-N,N′-bis[2-ethanesulfonic acid]/l (pH=7.5). The MMP-3 enzyme solution contained 2.3 μg, and the MMP-8 enzyme solution contained 0.6 μg, of one of the enzyme domains/ml prepared as described by Ye et al. The substrate solution contained 1 mmol of the fluorogenic substrate (7-methoxycoumarin-4-yl)acetyl-Pro-Leu-Gly-Leu-3-(2′,4′-dinitrophenyl)-L-2,3-diaminopropionyl-Ala-Arg-NH2/l (Bachem, Heidelberg, Germany).

[2] = target: T2, catalytic domain of human collagenase-1 (MMP-1) (Homo sapiens, UniProt P03956); assay: Enzyme activity of the catalytic domain of human collagenase-1 (MMP-1), fluorogenic substrate; conditions: APMA-activated proenzyme, fluorescence 328/393 nm
T2 construct: enzyme activity of the catalytic domain of human collagenase-1 (MMP-1); purchased Biocol, Potsdam MMP1
T2 sequence (P03956 100-269 limits assumed): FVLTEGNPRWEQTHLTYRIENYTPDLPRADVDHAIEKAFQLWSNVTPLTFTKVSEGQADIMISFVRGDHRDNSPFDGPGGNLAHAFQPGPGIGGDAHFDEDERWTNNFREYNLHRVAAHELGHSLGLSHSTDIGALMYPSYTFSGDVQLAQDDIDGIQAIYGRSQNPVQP
Method: a) Determining the enzyme activity of the catalytic domain of human collagenase-1 (MMP-1).
Activation of the proenzyme:
2 parts by volume of proenzyme are incubated, at 37° C. for 1 hour, with 1 part by volume of APMA solution. The APMA solution is prepared from a 10 mmol/l solution of p-aminophenylmercuric acetate in 0.1 mmol/l NaOH by diluting with 3 parts by volume of tris/HCl buffer, pH 7.5 (see below). The pH is adjusted to between 7.0 and 7.5 by adding 1 mmol/l HCl. After the enzyme has been activated, it is diluted with the tris/HCl buffer to a concentration of 2.5 μg/ml.
(§2) In order to measure the enzyme activity, 10 μl of enzyme solution are incubated for 15 minutes with 10 μl of a 3% (v/v) buffered solution of dimethyl sulfoxide (reaction 1). In order to measure the enzyme inhibitor activity, 10 μl of enzyme solution are incubated with 10 μl of a 3% (v/v) buffered solution of dimethyl sulfoxide which contains the enzyme inhibitor (reaction 2).
Both in the case of reaction 1 and in the case of reaction 2, the enzyme reaction is monitored by fluorescence spectroscopy (328 nm (extinction)/393 nm (emission)) after adding 10 μl of a 3% (v/v) aqueous solution of dimethyl sulfoxide which contains 0.3 mmol of the substrate/l.
as §1
The inhibitory effect is calculated as percentage inhibition using the following formula: % inhibition=100−[(increase in extinction/minute in reaction 2)/(increase in extinction/minute in reaction 1)×100].
The IC50, i.e. the inhibitor concentration which is required for 50% inhibition of the enzyme activity, is determined graphically by plotting the percentage inhibitions at different inhibitor concentrations. The buffer solution contains 0.05% Brij (Sigma, Deisenhofen, Germany) and also 0.1 mol of tris/HCl/l, 0.1 mol of NaCl/l, 0.01 mol of CaCl2/l (pH=7.5).
The enzyme solution contains 2.5 μg of the enzyme domain/ml.
The substrate solution contains 0.3 mmol of the fluorogenic substrate (7-methoxycoumarin-4-yl)acetyl-Pro-Leu-Gly-Leu-3-(2′,4′-dinitrophenyl)-L-2,3-diaminopropionyl-Ala-Arg-NH2/l (Bachem, Heidelberg, Germany).

[3] = target: T3, catalytic domain of human gelatinase A (MMP-2) (Homo sapiens, UniProt P08253); assay: Enzyme activity of the catalytic domain of human gelatinase A (MMP-2), fluorogenic substrate; conditions: APMA-activated proenzyme, fluorescence 328/393 nm
T3 construct: enzyme activity of the catalytic domain of human gelatinase A (MMP-2); purchased INVITEK, Berlin 30 100 602
T3 sequence (P08253 110-465 limits assumed): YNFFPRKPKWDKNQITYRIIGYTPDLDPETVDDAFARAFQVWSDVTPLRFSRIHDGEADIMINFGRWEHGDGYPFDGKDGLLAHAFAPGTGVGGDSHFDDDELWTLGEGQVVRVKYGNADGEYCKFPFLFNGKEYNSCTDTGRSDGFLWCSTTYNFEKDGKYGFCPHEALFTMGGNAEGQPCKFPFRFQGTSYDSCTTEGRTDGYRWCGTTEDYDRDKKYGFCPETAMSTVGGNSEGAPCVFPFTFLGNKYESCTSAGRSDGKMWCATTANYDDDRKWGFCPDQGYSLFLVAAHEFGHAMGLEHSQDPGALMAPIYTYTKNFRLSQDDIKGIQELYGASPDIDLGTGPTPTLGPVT
Method: d) Determining the enzyme activity of the catalytic domain of human gelatinase A (MMP-2). […] Activation of the proenzyme:
2 parts by volume of proenzyme were incubated, at 37° C. for 0.5 hour, with 1 part by volume of APMA solution. The APMA solution was prepared from a 10 mmol/l solution of p-aminophenylmercuric acetate in 0.1 mmol/l NaOH by diluting it with 3 parts by volume of tris/HCl buffer, pH 7.5 (see below). The pH was adjusted to between 7.0 and 7.5 by adding 1 mmol/l HCl. After the enzyme had been activated, it was diluted with the tris/HCl buffer to a concentration of 0.83 μg/ml.
as §2, with “were” for “are”, “contained” for “contains”
Both in the case of reaction 1 and in the case of reaction 2, the enzyme reaction was monitored by fluorescence spectroscopy (328 nm (extinction)/393 nm (emission)) after 10 μl of a 3% (v/v) aqueous solution of dimethyl sulfoxide which contained 0.3 mmol of the substrate/1 had been added.
The enzyme activity was presented as increase in extinction/minute.
The effect of the inhibitor was calculated as percentage inhibition in accordance with the following formula: % inhibition=100−[(increase in extinction/minute in reaction 2)/(increase in extinction/minute in reaction 1)×100].
The IC50, that is the concentration of inhibitor which is required for 50% inhibition of the enzyme activity, was determined graphically by plotting the percentage inhibitions at different inhibitor concentrations.
The buffer solution contained 0.05% Brij (Sigma, Deisenhofen, Germany) and also 0.1 mol of tris/HCl/l, 0.1 mol of NaCl/l, 0.01 mol of CaCl2/l (pH=7.5). The enzyme solution contained 0.83 μg of the enzyme domain/ml. The substrate solution contained 0.3 mmol of the fluorogenic substrate (7-methoxycoumarin-4-yl)acetyl-Pro-Leu-Gly-Leu-3-(2′,4′-dinitrophenyl)-L-2,3-diaminopropionyl-Ala-Arg-NH2/l (Bachem, Heidelberg, Germany).

For `O=C(NO)[C@H]1[C@H]2CCCC[C@H]2CCN1S(=O)(=O)c1ccc(Oc2ccc(F)cc2)cc1` [Example 21, 2-[4-(4-fluorophenoxy)benzenesulfonyl]decahydroisoquinoline-1-(N-hydroxy)carboxamide], the IC50 [1] was 2.3 nM, the IC50 [2] was 21 nM and the IC50 [3] was 1.5 nM.

With `O=C(NO)C1C2CCCCC2CCN1S(=O)(=O)c1ccc(Oc2ccc(OC(F)(F)F)cc2)cc1` (stereo not drawn) [Example 23, 2-[4-(4-trifluoromethoxyphenoxy)benzenesulfonyl]decahydroisoquinoline-1-(N-hydroxy)carboxamide] the IC50 [1] was 9 nM, the IC50 [2] was 290 nM and the IC50 [3] was 2 nM.

Molecule `O=C(NO)C1C2CCCCC2CCN1S(=O)(=O)c1ccc(Oc2ccc(OCC(F)(F)F)cc2)cc1` (stereo not drawn) [Example 13, 2-{4-[4-(2,2,2-trifluoroethoxy)phenoxy]benzenesulfonyl}decahydroisoquinoline-1-(N-hydroxy)carboxamide] has an IC50 [1] of 4 nM, an IC50 [2] of 180 nM and an IC50 [3] of 2.6 nM.

Work on `O=C(NO)C1C2CCCCC2CCN1S(=O)(=O)c1ccc(Oc2ccncc2)cc1` (stereo not drawn) [Example 9, 2-[4-(pyridin-4-yloxy)benzenesulfonyl]decahydroisoquinoline-1-(N-hydroxy)carboxamide trifluoroacetate] yielded an IC50 [1] of 22 nM, an IC50 [2] of 1000 nM and an IC50 [3] of 20 nM.

Work on `O=C(NO)[C@H]1[C@H]2CCCC[C@H]2CCN1S(=O)(=O)c1ccc(-c2ccc(Cl)cc2)cc1` (single isomer, unassigned) [Example 14, 2-(4′-chlorobiphenyl-4-sulfonyl)decahydroisoquinoline-1-(N-hydroxy)-carboxamide] yielded an IC50 [1] of 2.2 nM, an IC50 [2] of 400 nM and an IC50 [3] of 2 nM.

In the case of `COc1ccc(Oc2ccc(S(=O)(=O)N3CCC4CCCCC4C3C(=O)NO)cc2)cc1` (stereo not drawn) [Example 11, 2-[4-(4-methoxyphenoxy)benzenesulfonyl]decahydroisoquinoline-1-(N-hydroxy)carboxamide], the IC50 [1] is reported as 2.5 nM, the IC50 [2] is reported as 220 nM and the IC50 [3] is reported as 2 nM.

`N#Cc1ccc(Oc2ccc(S(=O)(=O)N3CCC4CCCCC4C3C(=O)NO)cc2)cc1` (stereo not drawn) [Example 26, 2-[4-(4-cyanophenoxy)benzenesulfonyl]decahydroisoquinoline-1-(N-hydroxy)carboxamide] was tested, and the IC50 [1] was 16 nM, the IC50 [2] was 450 nM and the IC50 [3] was 8 nM.

With `O=C(NO)C1C2CCCCC2CCN1S(=O)(=O)CCc1ccc(-c2ccc(Cl)cc2)cc1` (stereo not drawn) [Example 7, 2-[2-(4′-chlorobiphenyl-4-yl)ethanesulfonyl]decahydroisoquinoline-1-(N-hydroxy)carboxamide] the IC50 [1] was 13 nM, the IC50 [2] was 600 nM and the IC50 [3] was 4 nM.

`O=C(NO)C1C2CCCCC2CCN1S(=O)(=O)c1ccc(-c2ccc(OC(F)(F)F)cc2)cc1` (stereo not drawn) [Example 19, 2-(4′-trifluoromethoxybiphenyl-4-sulfonyl)decahydroisoquinoline-1-(N-hydroxy)carboxamide] was tested, and the IC50 [1] was 10 nM, the IC50 [2] was 2100 nM and the IC50 [3] was 3 nM.

Molecule `O=C(NO)C1C2CCCCC2CCN1S(=O)(=O)c1ccc(Oc2ccccc2)nc1` (stereo not drawn) [Example 5, 2-(6-phenoxypyridine-3-sulfonyl)decahydroisoquinoline-1-(N-hydroxy)-carboxamide trifluoroacetate] has an IC50 [1] of 2.5 nM, an IC50 [2] of 70 nM and an IC50 [3] of 2 nM.

`O=C(NO)C1C2CCCCC2CCN1S(=O)(=O)c1ccc(-c2ccc(Cl)cc2)cc1` (stereo not drawn) [Example 3, 2-(4′-chlorobiphenyl-4-sulfonyl)decahydroisoquinoline-1-(N-hydroxy)-carboxamide] was tested, and the IC50 [1] was 3 nM, the IC50 [2] was 400 nM and the IC50 [3] was 30 nM.

`O=C(NO)[C@@H]1[C@@H]2CCCC[C@@H]2CCN1S(=O)(=O)c1ccc(-c2ccc(Cl)cc2)cc1` (single isomer, unassigned) [Example 15, 2-(4′-chlorobiphenyl-4-sulfonyl)decahydroisoquinoline-1-(N-hydroxy)-carboxamide] showed an IC50 [1] of 2000 nM, an IC50 [2] of 6000 nM and an IC50 [3] of 2300 nM.

`O=C(NO)C1C2CCCCC2CCN1S(=O)(=O)c1ccc(Oc2ccc(F)cc2)cc1` (stereo not drawn) [Example 20, 2-[4-(4-fluorophenoxy)benzenesulfonyl]decahydroisoquinoline-1-(N-hydroxy)carboxamide] gave an IC50 [1] of 3 nM, an IC50 [2] of 41 nM and an IC50 [3] of 2 nM.
